Experiments:
SW620 cells = assay: RNA-seq, SW620 cells; assay type: cell-based, human
Procedure: SW620 cells were seeded into 6-well plates and left to adhere overnight. Cells were treated with 1 μM, 10 μM of CXD101 for 48 h. CT26 cells were seeded onto 100 mm plates and treated with 2.7 μM and 10 μM CXD101 for 72 h. After treatment cells were harvested and total RNA extracted by means of Promega ReliaPrep™ RNA Cell Miniprep System (Promega, USA). RNA was dissolved in RNAse free water and stored in −80° C. for future analysis. RNA concentration was measured by NanoDrop 2000 (Thermo Fisher Scientific, USA). Samples were qualified for library preparation if […]. Library preparation with poly (A) enrichment was performed by BGI.
FASTQ files for CXD101 and DMSO treated samples in three biological replicates were trimmed to remove adapters and low-quality bases with TrimGalore v.0.4.3 (http://www.bioinformatics.babraham.ac.uk/projects/trim_galore/). The trimmed reads were aligned to the human reference genome (build hg19) with STAR aligner v.2.7 with two mismatches allowed. Differential gene expression analysis was done with the Bioconductor framework (v.3.8) and DESeq2 R package v.1.22, using read count data provided by the aligner. Genes were considered differentially expressed if the adjusted P, calculated using the Benjamini-Hochberg method in order to minimise the false discovery rate, was less than 0.01 (1%) and the change in expression level was greater than ˜2-fold as compared to DMSO control (e.g. |log_2(expression fold change)|>1).

[1] = tested on: mouse colorectal colon26 cells; assay: Proliferation of colon26 cells; assay type: cell-based; conditions: dose- and time-dependent
Procedure: Three human colorectal adenocarcinoma cell lines: SW620 (ATCC® CCL-227™), HCT-15 (ATCC® CCL-225™), LoVo (ATCC® CCL-229™), and one mouse colon carcinoma cell line: CT26 (ATCC® CRL-2638™) were obtained from ATCC. Human cell lines were cultured in DMEM (Lonza Group, Switzerland), while CT26 in RPMI (Biowest, France). The media were supplemented with 10% FBS and 1% penicillin-streptomycin (Lonza Group, Switzerland). Cells were cultured under standard conditions.
In order to assess the cytotoxicity of CXD101, cells were seeded onto 96-well plates overnight and the next day were dosed with CXD101 and incubated for 72 h or 120 h. Next, 100 μl of Thiazolyl Blue Tetrazolium Bromide (MTT, Sigma-Aldrich, USA) was added into a well (final concentration […]) and incubated for 2 h at 37° C. After that medium was discarded and formazan crystals were dissolved in 100 μl DMSO (VWR International, USA) by shaking for 15 minutes. Absorbance was read by Omega FLUOstar plate reader (BMG Labtech Ltd, Germany) at the 584 nm wavelength. Data were analysed and IC50 doses calculated in GraphPad Prism (GraphPad Software, USA).

H3 acetylation = assay: H3 acetylation, colon26 cells; assay type: cell-based, mouse; conditions: colon26, dose-dependent
Procedure: Cell pellets were lysed in TNN buffer, for 30 minutes on ice and centrifuged for another 30 minutes at maximum speed at 4° C. Protein concentration was assessed by Bradford assay (Quick Start™ Bradford 1× Dye Reagent, Bio-Rad Laboratories, USA). After gel electrophoresis, proteins were transferred onto the PVDF membrane by means of Trans-Blot® Turbo™ Transfer System (Bio-Rad Laboratories, USA) and blocked by 1 h incubation in 5% skim milk (Merck Group, Germany) in PBST at RT. To confirm acetylation induced by CXD101, membranes were incubated with anti-H3 (ab1791, abcam) antibody, anti-H3Ack9 (ab10812, abcam) in case of CT26 cells, and for SW620 with H3Ack14 antibody (#7627, Cell Signaling) overnight, at 4° C. Next, membranes were washed and treated with secondary antibody for 1 h at RT. Chemiluminescent signals were detected by LICOR C-Digit (LI-COR Biosciences, USA), and the data quantified using ImageJ software (National Institutes of Health, USA).

colon26 cells = assay: qPCR of single genes, colon26 cells; assay type: cell-based, mouse
Procedure: Total RNA purified from DMSO- or CXD101 treated cells was transcribed into cDNA according to the manufacturer's instructions (iScript cDNA Synthesis Kit, Bio-Rad, USA). qPCR was conducted according to the manufacturer's protocol (SsoAdvanced Universal SYBR Green Supermix, Bio-Rad Laboratories, USA) on CFX Connect Real-Time System thermocycler (Bio-Rad Laboratories, USA).

colon26 tumours = assay: RNAseq and qPCR of colon26 tumours; assay type: in vivo, Balb/c mice
Procedure: To assess gene expression in tumours that were growing in vivo, we evaluated the effect of CXD101 in the syngeneic colon26 colon carcinoma model in tumours grown subcutaneously in Balb/c mice, with CXD101 given orally for two 5-day consecutive periods and performed RNAseq on RNA purified from the tumours. Formalin-fixed paraffin-embedded samples were also prepared to assess by immunohistochemistry (IHC) the tumour micro-environment.
The effect was dose-dependent, as more tumour-inhibition occurred with a higher dose of CXD101 (50 mg/kg compared to 15 mg/kg). […] We performed RNA seq on polyA-enriched RNA prepared from the tumours. In a similar way to the analysis of colon26 in vitro, the RNAseq data was aligned to the reference M. musculus genome (mm10) with STAR aligner and analysed for differential expression. […] We then assessed whether the same genes identified in the in vitro treated colon26 cells were similarly regulated in vivo.

[2] = cited from earlier work

In the case of Cc1nn(C)cc1CN1CCC(c2ccc(C(=O)Nc3ccccc3N)cc2)CC1 [CXD101, N-(2-aminophenyl)-4-(1-[(1,3-dimethyl-1H-pyrazol-4-yl)methyl]piperidin-4-yl)benzamide], the “share of DEGs down-regulated” value (SW620 cells; SW620) is reported as 30%, the “share of DEGs up-regulated” value (SW620 cells; SW620) is reported as 70% and the “number of differentially expressed transcripts” value (SW620 cells; log 2 FC >1 and FDR <1%) is reported as “about 2500”. The “proliferation of colon26 cells” value [1] was “inhibits proliferation”, the “H3 acetylation in cells” value (H3 acetylation) was “increases the H3 acetylation” and the “expression of Ctla4, H2-D1, Tnfsrf8” value (colon26 cells) was “no effects”. For the same compound, the “expression of H2-DMb1, H2-Eb1, H2-Dma, Ereg, Timp3, Ccl9, Cc20, II33, Rab3b” value (colon26 cells) was “increased expression”, the “expression of H2-T3” value (colon26 cells) was “decreased” and the “expression of Ccl20, Tnfsrf8” value (colon26 tumours; colon26 tumours, qPCR) was “no effects”. For the same compound, the “expression of H2-DMb1, H2-Eb1, H2-Dmb1, H2-T3, Ereg, Timp3, Ctla4, H2-D1, Ccl9, 1133” value (colon26 tumours; colon26 tumours, qPCR) was “increased expression”, the “expression of Rab3b” value (colon26 tumours; colon26 tumours, qPCR) was “decreased” and the “number of DEGs in tumours in vivo” value (colon26 tumours; log 2 FC >1 and FDR <1%) was 1141. The “patients with tumour reduction” value ([2]; T-cell lymphoma, follicular lymphoma, Hodgkin lymphoma) was 63% and the MTD ([2]; for 5 days in a 3-weekly cycle) was 20 mg B.D.

Source: patent US12453725B2, “Treatment of inflammatory disease” (Celleron Therapeutics Limited, priority 2019, dated 2025)
